How the values were obtained:
[1] = tested on: SipD-antigen-specific IgG; assay: Vaccination in chicken with SipD as an antigen, serum IgG ELISA; assay type: in vivo, Leghorn chicken; details: triple adjuvant composition (20 μg polyphosphazene: 40 μg IDR-1002: 20 μg Poly(I:C)) with 10 μg SipD, intramuscular, after two immunizations (Week 4), FIG. 1B
Description: To assess the adjuvant activity of cyclopolyphosphazene candidates, such as 37, 11 and 39, an in vivo study was conducted with intramuscular administration of a Salmonella typhimurium Cell invasion protein (SipD) vaccine in young chicken. Two-week-old Leghorn chicken were randomly divided into three single adjuvant groups, three triple adjuvant groups and one PBS-adjuvant control group (n=12/group). The single adjuvant groups contained 20 μg PCEP, 11 or 37 polyphosphazene. All triple adjuvants comprised Poly(I:C), IDR-1002 peptide and a polyphosphazene: either PCEP, 37 or 11.
All vaccines were formulated prior to administration and injected in 200 μL intramuscularly in the tail area. Chicken were vaccinated at Day 0 and Day 14 (Week 2) with the same dose. […]
Serum was collected on days 0, 14 and 28 for SipD-antigen-specific IgG ELISAs. […] Plates were read with a Molecular Devices SpectraMax Plus 384 Reader™. Data were expressed as titres, which represent the dilution factor required to generate an absorbance reading two standard deviations above the average value of the negative control, e.g. serum from control chicken receiving no vaccination.

antigen-specific IgG1 = assay: Vaccination in mice with ovalbumin as an antigen, serum IgG1 ELISA; assay type: in vivo, Balb/c mice; details: triple adjuvant composition (10 μg polyphosphazene: 20 μg IDR-1002: 10 μg Poly(I:C)) with Ova 50 μg or 1 μg, intramuscular, after two immunizations (Week 8), FIGS. 2 and 5
Description: (§1) To assess the adjuvant activity of the cyclopolyphosphazene 37, four in vivo studies were conducted with intramuscular administration of an ovalbumin (Ova) vaccine in mice. In the first two studies, the Ova vaccine was either formulated with no adjuvant or with a triple adjuvant (TriAdj). The first two studies compared three different triple adjuvants, all comprising Poly(I:C), IDR-1002 peptide and a polyphosphazene: either PCEP, 37 or 11. The third and fourth studies compared four different triple adjuvants, all comprising Poly(I:C), IDR-1002 peptide and a polyphosphazene: either PCEP, compound 11, compound 37 or compound 39.
(§2) In all studies, mice were randomized to cages such that the various treatment groups were not together in the same cage. All groups received Ova antigen mixed with the adjuvant (or not) just prior to intramuscular administration. All the vaccines were formulated and injected in 50 μL (25 μ/leg). Mice were vaccinated at Day 0 and Day 28 (Week 4) with the same dose.
(§3) In all studies, serum was collected on days 0, 28 and 56 for antigen-specific IgG1 and IgG2a ELISAs. […] Plates were read with a Biorad iMark Microplate Reader™. Data were expressed as titres, which represent the dilution factor required to generate an absorbance reading three standard deviations above the average value of the negative control, e.g. serum from control mice receiving no vaccination. […]

antigen-specific IgG2a = assay: Vaccination in mice with ovalbumin as an antigen, serum IgG2a ELISA; assay type: in vivo, Balb/c mice; details: triple adjuvant composition (10 μg polyphosphazene: 20 μg IDR-1002: 10 μg Poly(I:C)) with Ova 50 μg or 1 μg, intramuscular, after two immunizations (Week 8), FIGS. 3 and 5
Description: as §1, §2, §3

CCCCCCCCCCCC(=O)NCCCCCCNC(=O)C(CCCCN)NC(=O)CCc1ccc(OP2(Oc3ccc(CCC(=O)NC(CCCCN)C(=O)NCCCCCCNC(=O)CCCCCCCCCCC)cc3)=NP(Oc3ccc(CCC(=O)NC(CCCCN)C(=O)NCCCCCCNC(=O)CCCCCCCCCCC)cc3)(Oc3ccc(CCC(=O)NC(CCCCN)C(=O)NCCCCCCNC(=O)CCCCCCCCCCC)cc3)=NP(Oc3ccc(CCC(=O)NC(CCCCN)C(=O)NCCCCCCNC(=O)CCCCCCCCCCC)cc3)(Oc3ccc(CCC(=O)NC(CCCCN)C(=O)NCCCCCCNC(=O)CCCCCCCCCCC)cc3)=N2)cc1 (stereo not drawn) [Compound 37, N,N′,N″,N′″,N″″,N′″″-(((2,2′,2″,22′″,2″″,2′″″-((3,3′,3″,3′″,3″″,3′″″-(((1,3,5,2l5,4l5,6l5-triazatriphosphinine-2,2,4,4,6,6-hexayl)hexakis(oxy))hexakis(benzene-4,1-diyl))hexakis(propanoyl))hexakis(azanediyl))hexakis(6-aminohexanoyl))hexakis(azanediyl))hexakis(hexane-6,1-diyl))hexadodecanamide]
significantly greater response: antigen-specific IgG titres relative to a vaccine without adjuvant [1] | response in IgG1 relative to a vaccine without adjuvant (antigen-specific IgG1) | response in IgG2a relative to a vaccine without adjuvant (antigen-specific IgG2a)
